Laboratory results reported in US20250171426A1, “PYRIMIDINEDIONE-BASED COMPOUNDS AS AXL, C-MET, AND MER INHIBITORS AND METHODS OF USE THEREOF” (CMG Pharmaceutical Co., Ltd., priority 2022, published 2025).

Columns and labels:
Format in all cases: biochemical
Conditions in all cases: 10 μM ATP, 60 min, ADP-GLO luminescence
c-MET = c-MET (Homo sapiens, UniProt P08581); test: Enzymatic assay (ADP-Glo kinase reaction), c-MET
Method: (§1) All the kinase reactions were performed in 5 μL using tyrosine kinase buffer with 0.2 μg/μL poly (Glu4, Tyr1) substrate, 10 μM ATP, serial dilution of the inhibitor, and incubated at room temperature for 60 min. After the indicated incubation times, 5 μL ADP-GLO™ reagent (Promega, Madison, WI) was added to the reactions and the plate was incubated at room temperature for 40 min. […] All 384-well assay plates were read using a GLOMAX™ Discover Microplate Luminometer from Promega (Madison, WI). To plot, analyze the data and calculate all kinase reaction biochemical values, both Microsoft Excel and Prism from GraphPad 7 Software (La Jolla, CA) were used.

AXL = biological target: T1, AXL (Homo sapiens, UniProt P30530); test: Enzymatic assay (ADP-Glo kinase reaction), AXL
T1 sequence (P30530 26-894): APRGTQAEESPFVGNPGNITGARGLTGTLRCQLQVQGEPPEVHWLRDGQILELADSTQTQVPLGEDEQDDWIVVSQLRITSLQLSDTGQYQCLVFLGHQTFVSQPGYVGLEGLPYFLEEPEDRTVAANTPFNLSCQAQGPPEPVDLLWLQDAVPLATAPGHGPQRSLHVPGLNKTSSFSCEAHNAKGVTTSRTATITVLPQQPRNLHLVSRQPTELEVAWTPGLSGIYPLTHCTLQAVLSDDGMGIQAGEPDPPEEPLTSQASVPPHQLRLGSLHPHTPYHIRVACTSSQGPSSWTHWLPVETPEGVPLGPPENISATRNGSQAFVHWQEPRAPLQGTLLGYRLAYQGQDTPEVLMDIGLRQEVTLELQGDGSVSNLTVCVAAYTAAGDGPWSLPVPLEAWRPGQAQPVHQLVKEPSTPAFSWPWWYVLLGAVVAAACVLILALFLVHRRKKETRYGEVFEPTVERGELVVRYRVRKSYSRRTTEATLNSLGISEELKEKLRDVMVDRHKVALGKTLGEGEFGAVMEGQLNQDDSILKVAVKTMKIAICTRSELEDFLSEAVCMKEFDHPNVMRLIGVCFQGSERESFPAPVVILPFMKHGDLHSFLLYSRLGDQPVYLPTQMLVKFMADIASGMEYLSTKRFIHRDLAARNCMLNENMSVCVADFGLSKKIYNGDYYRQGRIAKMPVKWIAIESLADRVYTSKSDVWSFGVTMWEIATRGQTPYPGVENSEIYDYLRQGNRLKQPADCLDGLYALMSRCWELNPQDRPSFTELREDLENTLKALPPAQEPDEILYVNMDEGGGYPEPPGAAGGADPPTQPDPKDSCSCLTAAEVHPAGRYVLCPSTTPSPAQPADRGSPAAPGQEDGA
Method: as §1

MER = biological target: T2, MER (Homo sapiens, UniProt Q12866); test: Enzymatic assay (ADP-Glo kinase reaction), MER
T2 sequence (Q12866 21-999): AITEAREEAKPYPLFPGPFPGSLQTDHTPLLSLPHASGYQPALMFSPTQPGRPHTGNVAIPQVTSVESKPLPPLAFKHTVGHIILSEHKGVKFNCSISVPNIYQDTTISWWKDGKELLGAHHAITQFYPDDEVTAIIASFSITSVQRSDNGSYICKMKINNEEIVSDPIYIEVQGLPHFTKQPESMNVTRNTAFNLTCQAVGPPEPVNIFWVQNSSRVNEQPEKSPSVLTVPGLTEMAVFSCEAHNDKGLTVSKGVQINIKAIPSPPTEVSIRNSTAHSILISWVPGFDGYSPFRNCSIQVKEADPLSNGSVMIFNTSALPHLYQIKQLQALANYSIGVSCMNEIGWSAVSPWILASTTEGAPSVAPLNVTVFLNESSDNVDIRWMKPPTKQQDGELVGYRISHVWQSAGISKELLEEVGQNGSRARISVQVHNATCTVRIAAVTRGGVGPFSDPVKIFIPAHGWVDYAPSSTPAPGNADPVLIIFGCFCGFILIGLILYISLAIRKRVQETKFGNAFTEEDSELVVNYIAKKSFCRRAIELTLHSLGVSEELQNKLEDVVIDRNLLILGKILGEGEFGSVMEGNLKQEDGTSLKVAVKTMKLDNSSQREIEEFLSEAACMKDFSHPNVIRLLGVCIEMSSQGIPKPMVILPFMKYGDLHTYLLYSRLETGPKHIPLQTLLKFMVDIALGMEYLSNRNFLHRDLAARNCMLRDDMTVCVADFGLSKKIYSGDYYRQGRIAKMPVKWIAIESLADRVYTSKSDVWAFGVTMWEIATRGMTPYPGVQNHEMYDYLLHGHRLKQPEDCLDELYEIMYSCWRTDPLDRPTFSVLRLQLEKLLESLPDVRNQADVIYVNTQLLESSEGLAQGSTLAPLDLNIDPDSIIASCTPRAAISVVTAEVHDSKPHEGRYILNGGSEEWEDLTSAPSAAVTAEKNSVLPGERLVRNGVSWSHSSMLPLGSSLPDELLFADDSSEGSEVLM
Method: (§2) All the kinase reactions were performed in 5 μL using tyrosine kinase buffer with 0.2 μg/μL poly (Glu4, Tyr1) substrate, 10 μM ATP, serial dilution of the inhibitor, and incubated at room temperature for 60 min. After the indicated incubation times, 5 μL ADP-GLO™ reagent (Promega, Madison, WI) was added to the reactions and the plate was incubated at room temperature for 40 min. Then, 10 μL of kinase detection reagent was added and after an incubation time of 40 min, luminescence was recorded and IC50 values were determined (Table 1). All 384-well assay plates were read using a GLOMAX™ Discover Microplate Luminometer from Promega (Madison, WI). To plot, analyze the data and calculate all kinase reaction biochemical values, both Microsoft Excel and Prism from GraphPad 7 Software (La Jolla, CA) were used.
as §2, with “3).” for “1).”

c-MET, sequence (P08581 25-1390): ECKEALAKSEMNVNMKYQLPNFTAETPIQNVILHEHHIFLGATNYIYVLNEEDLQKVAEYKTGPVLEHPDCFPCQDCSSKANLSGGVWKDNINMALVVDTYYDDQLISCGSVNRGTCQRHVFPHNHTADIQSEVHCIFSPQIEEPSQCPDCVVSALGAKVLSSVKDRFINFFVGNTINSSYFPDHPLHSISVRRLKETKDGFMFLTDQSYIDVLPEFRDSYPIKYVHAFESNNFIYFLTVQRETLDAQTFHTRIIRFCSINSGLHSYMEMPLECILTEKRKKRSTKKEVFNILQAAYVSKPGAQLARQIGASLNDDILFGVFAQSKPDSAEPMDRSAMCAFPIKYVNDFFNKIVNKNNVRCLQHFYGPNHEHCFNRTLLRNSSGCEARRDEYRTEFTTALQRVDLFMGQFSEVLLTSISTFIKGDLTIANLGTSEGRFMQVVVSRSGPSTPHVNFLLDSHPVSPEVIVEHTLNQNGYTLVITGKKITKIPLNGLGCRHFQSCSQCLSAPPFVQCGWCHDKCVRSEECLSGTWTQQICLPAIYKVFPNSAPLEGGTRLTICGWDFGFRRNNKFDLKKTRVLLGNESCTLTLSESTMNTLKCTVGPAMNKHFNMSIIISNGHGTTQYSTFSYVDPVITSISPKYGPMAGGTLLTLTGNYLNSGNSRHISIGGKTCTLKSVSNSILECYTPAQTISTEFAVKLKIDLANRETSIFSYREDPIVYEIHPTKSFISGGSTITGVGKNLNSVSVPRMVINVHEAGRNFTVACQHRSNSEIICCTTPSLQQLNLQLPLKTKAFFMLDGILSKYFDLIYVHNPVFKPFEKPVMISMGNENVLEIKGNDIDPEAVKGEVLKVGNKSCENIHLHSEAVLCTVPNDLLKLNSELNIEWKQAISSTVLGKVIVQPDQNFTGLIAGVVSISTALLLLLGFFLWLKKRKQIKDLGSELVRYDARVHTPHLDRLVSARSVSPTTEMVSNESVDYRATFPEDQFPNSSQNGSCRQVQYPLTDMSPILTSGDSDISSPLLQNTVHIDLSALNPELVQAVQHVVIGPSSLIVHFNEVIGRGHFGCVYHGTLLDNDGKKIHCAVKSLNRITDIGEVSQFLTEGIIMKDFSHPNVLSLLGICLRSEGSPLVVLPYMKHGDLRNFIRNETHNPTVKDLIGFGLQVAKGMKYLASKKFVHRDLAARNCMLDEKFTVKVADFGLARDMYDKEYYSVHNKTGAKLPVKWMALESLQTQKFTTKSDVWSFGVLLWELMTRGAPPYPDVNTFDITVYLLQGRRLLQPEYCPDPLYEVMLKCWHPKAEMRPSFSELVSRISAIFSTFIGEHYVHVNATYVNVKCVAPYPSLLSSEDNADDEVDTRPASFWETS

Row | SMILES | IC50 (c-MET) [nM] | IC50 (AXL) [nM] | IC50 (MER) [nM]
1 | CC(C)n1cc(C(=O)Nc2ccc(Oc3ccnc(N)c3C#CC(=O)N3CCNCC3)c(F)c2)c(=O)n(-c2ccc(F)cc2)c1=O [Example 1, N-(4-(2-amino-3-(3-oxo-3-(piperazin-1-yl)prop-1-ynyl)pyridin-4-yloxy)-3-fluorophenyl)-3-(4-fluorophenyl)-1-isopropyl-2,4-dioxo-1,2,3,4-tetrahydropyrimidine-5-carboxamide] | < 10 | < 10 | < 10
2 | COCCN1CCN(C(=O)C#Cc2c(Oc3ccc(NC(=O)c4cn(C(C)C)c(=O)n(-c5ccc(F)cc5)c4=O)cc3F)ccnc2N)CC1 [Example 2, N-(4-(2-amino-3-(3-(4-(2-methoxyethyl)piperazin-1-yl)-3-oxoprop-1-ynyl)pyridin-4-yloxy)-3-fluorophenyl)-3-(4-fluorophenyl)-1-isopropyl-2,4-dioxo-1,2,3,4-teterahydropyrimidine-5-carboxamide] | < 10 | < 10 | < 10
3 | CC(C)n1cc(C(=O)Nc2ccc(Oc3ccnc(N)c3/C=C/C(=O)N3CCNCC3)c(F)c2)c(=O)n(-c2ccc(F)cc2)c1=O [Example 3, (E)-N-(4-(2-amino-3-(3-oxo-3-(piperazin-1-yl)prop-1-enyl)pyridin-4-yloxy)-3-fluorophenyl)-3-(4-fluorophenyl)-1-isopropyl-2,4-dioxo-1,2,3,4-tetrahydropyrimidine-5-carboxamide] | < 100 | < 10 | < 10
4 | COCCN1CCN(C(=O)/C=C/c2c(Oc3ccc(NC(=O)c4cn(C(C)C)c(=O)n(-c5ccc(F)cc5)c4=O)cc3F)ccnc2N)CC1 [Example 4, (E)-N-(4-(2-amino-3-(3-(4-(2-methoxyethyl)piperazin-1-yl)-3-oxoprop-1-enyl)pyridin-4-yloxy)-3-fluorophenyl)-3-(4-fluorophenyl)-1-isopropyl-2,4-dioxo-1,2,3,4-tetrahydropyrimidine-5-carboxamide] | < 10 | < 10 | < 10
5 | CC(C)n1cc(C(=O)Nc2ccc(Oc3ccnc(N)c3C#N)c(F)c2)c(=O)n(-c2ccc(F)cc2)c1=O [Example 5, N-(4-(2-amino-3-cyanopyridin-4-yloxy)-3-fluorophenyl)-3-(4-fluorophenyl)-1-isopropyl-2,4-dioxo-1,2,3,4-tetrahydropyrimidine-5-carboxamide] | < 10 | < 10 | < 10
6 | CC(C)n1cc(C(=O)Nc2ccc(Oc3ccnc(N)c3Cl)c(F)c2)c(=O)n(-c2ccc(F)cc2)c1=O [Example 6, N-(4-(2-amino-3-chloropyridin-4-yloxy)-3-fluorophenyl)-3-(4-fluorophenyl)-1-isopropyl-2,4-dioxo-1,2,3,4-tetrahydropyrimidine-5-carboxamide] |  |  | < 100
7 | CC(C)n1cc(C(=O)Nc2ccc(Oc3ccnc(N)c3-c3cnn(C)c3)c(F)c2)c(=O)n(-c2ccc(F)cc2)c1=O [Example 7] | < 10 | < 10 | < 100
8 | CC(C)n1cc(C(=O)Nc2ccc(Oc3ccnc(N)c3C#Cc3ccccn3)c(F)c2)c(=O)n(-c2ccc(F)cc2)c1=O [Example 9, N-(4-(2-amino-3-(pyridin-2-ylethnyl)pyridin-4-yloxy)-3-fluorophenyl)-3-(4-fluorophenyl)-1-isopropyl-2,4-dioxo-1,2,3,4-tetrahydropyrimidine-5-carboxamide] | < 10 | < 10 | < 100
9 | CC(C)n1cc(C(=O)Nc2ccc(Oc3ccnc(N)c3-c3ccc(Oc4ccccc4)cc3)c(F)c2)c(=O)n(-c2ccc(F)cc2)c1=O [Example 10] | < 10000 | < 100 | < 10
10 | Cc1noc(C)c1-c1c(Oc2ccc(NC(=O)c3cn(C(C)C)c(=O)n(-c4ccc(F)cc4)c3=O)cc2F)ccnc1N [Example 11] | < 10000 | < 100 | < 10
11 | CCCn1cc(-c2c(Oc3ccc(NC(=O)c4cn(C(C)C)c(=O)n(-c5ccc(F)cc5)c4=O)cc3F)ccnc2N)cn1 [Example 12, N-(4-(2-amino-3-(1-propyl-1H-pyrazol-4-yl)pyridine-4-yloxy)-3-fluorophenyl)-3-(4-fluorophenyl)-1-isopropyl-2,4-dioxo-1,2,3,4-tetrahydropyrimidine-5-carboxamide] | < 10000 | < 1000 | < 1000
12 | CCCn1cc(C#Cc2c(Oc3ccc(NC(=O)c4cn(C(C)C)c(=O)n(-c5ccc(F)cc5)c4=O)cc3F)ccnc2N)cn1 [Example 13, N-(4-(2-amino-3-((1-propyl-1H-pyrazol-4-yl)ethynyl)pyridin-4-yloxy)-3-fluorophenyl)-3-(4-fluorophenyl)-1-isopropyl-2,4-dioxo-1,2,3,4-tetrahydropyrimidine-5-carboxamide] | < 1000 | < 10 | < 10
13 | CC(C)n1cc(C(=O)Nc2ccc(Oc3ccnc(N)c3C#CC(=O)N3CCOCC3)c(F)c2)c(=O)n(-c2ccc(F)cc2)c1=O [Example 14, N-(4-(2-amino-3-(3-morpholino-3-oxoprop-1-ynyl)pyridin-4-yloxy)-3-fluorophenyl)-3-(4-fluorophenyl)-1-isopropyl-2,4-dioxo-1,2,3,4-tetrahydropyrimidine-5-carboxamide] | < 10 | < 10 | < 10
14 | CC(C)n1cc(C(=O)Nc2ccc(Oc3ccnc(N)c3C#CCN3CCOCC3)c(F)c2)c(=O)n(-c2ccc(F)cc2)c1=O [Example 24, N-(4-(2-amino-3-(3-morpholinoprop-1-ynyl)pyridin-4-yloxy)-3-fluorophenyl)-3-(4-fluorophenyl)-1-isopropyl-2,4-dioxo-1,2,3,4-tetrahydropyrimidine-5-carboxamide] | < 10 | < 10 | 
